The subject of series [1] is TMD8. As to the kind of experiment: Antiproliferative activity against human TMD8 cells assessed as reduction in cell viability incubated for 72 hrs by MTT assay. The format is functional, cell-based. The settings on record: TMD8, 72 h. (In general: Tetrazolium dyes change colour on reduction, which living cells bring about.)
The target of series [2] is T1, MAP kinase-interacting serine/threonine-protein kinase 1 (Homo sapiens, UniProt Q9BUB5). Briefly: Inhibition of recombinant human N-terminal DYKDDDDK-tagged MNK1(1 to 424 residues) expressed in baculovirus expression system using TATKSGSTTKNR as substrate preincubated for 10 mins followed by ATP addition and measured after 40 mins by luminescence based assay.
Target sequence in this assay (Q9BUB5 whole entry, the tested form may be a part): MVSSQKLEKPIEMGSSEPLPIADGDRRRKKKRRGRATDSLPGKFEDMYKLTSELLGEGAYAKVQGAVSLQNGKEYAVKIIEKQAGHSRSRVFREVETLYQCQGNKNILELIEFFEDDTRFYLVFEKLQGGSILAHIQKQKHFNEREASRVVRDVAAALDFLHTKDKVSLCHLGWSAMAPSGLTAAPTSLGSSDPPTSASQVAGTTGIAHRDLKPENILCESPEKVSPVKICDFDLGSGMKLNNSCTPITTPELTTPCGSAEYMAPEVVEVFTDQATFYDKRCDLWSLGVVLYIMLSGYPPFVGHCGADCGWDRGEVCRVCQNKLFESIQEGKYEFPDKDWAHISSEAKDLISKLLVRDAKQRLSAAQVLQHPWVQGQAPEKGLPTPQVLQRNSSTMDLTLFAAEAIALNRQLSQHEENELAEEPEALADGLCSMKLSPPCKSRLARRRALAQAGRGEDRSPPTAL
The test system of series [3] is A549. Briefly: Antiproliferative activity against human A549 cells assessed as reduction in cell viability incubated at 20 uM for 72 hrs by MTT assay relative to control. The format is functional.
In series [4] the target is T2, MAP kinase-interacting serine/threonine-protein kinase 2 (Homo sapiens, UniProt Q9HBH9). As to the kind of experiment: Inhibition of MNK2 (unknown origin) at 100 nM incubated for 60 mins by HTRF assay. On the technique in general: Time-resolved FRET reads energy transfer from a long-lived donor to a nearby acceptor.
Target sequence in this assay (Q9HBH9 whole entry, looked up): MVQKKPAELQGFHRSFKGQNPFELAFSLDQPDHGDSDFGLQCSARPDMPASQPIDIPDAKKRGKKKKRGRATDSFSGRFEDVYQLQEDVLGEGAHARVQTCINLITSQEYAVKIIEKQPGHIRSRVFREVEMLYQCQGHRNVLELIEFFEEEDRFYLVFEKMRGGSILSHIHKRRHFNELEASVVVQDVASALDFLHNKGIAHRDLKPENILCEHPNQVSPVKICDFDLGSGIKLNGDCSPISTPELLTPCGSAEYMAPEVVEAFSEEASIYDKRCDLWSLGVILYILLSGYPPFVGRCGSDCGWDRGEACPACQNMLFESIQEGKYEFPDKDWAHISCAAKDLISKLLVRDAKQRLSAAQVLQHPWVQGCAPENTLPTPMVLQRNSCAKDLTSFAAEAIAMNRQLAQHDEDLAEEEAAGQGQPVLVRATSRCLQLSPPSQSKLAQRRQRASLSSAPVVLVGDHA
Series [5] has as its target T1, MAP kinase-interacting serine/threonine-protein kinase 1. Briefly: Inhibition of MNK1 (unknown origin) at 100 nM incubated for 60 mins by HTRF assay.
Target sequence in this assay (Q9BUB5 whole entry, looked up, the tested form may be a part): as the sequence (Q9BUB5 whole entry, the tested form may be a part) above
Series [6] has as its target T2, MAP kinase-interacting serine/threonine-protein kinase 2. As to the kind of experiment: Potency index, ratio of IC50 of eFT508 to IC50 of compound for inhibition of recombinant human N-terminal GST-tagged MNK2 (1 to 465 residues) expressed in baculovirus expression system using TATKSGSTTKNR as substrate preincubated for 10 mins followed by ATP addition and measured after 40 mins by luminescence based assay. Conditions: time 50.0 min.
Target sequence in this assay (Q9HBH9 whole entry, looked up): as the sequence (Q9HBH9 whole entry, looked up) above

Series [7] relates to MV4-11. Briefly: Antiproliferative activity against human MV4-11 cells assessed as reduction in cell viability incubated for 72 hrs by MTT assay. The format is functional, cell-based. The settings on record: MV4-11, 72 h.
Series [8] is described as follows: Antiproliferative activity against […] cells assessed as reduction in cell viability at 20 uM incubated for 72 hrs by MTT assay relative to control. Type of series: functional, Mus musculus.
In series [9] the target is T2, MAP kinase-interacting serine/threonine-protein kinase 2. Briefly: Inhibition of recombinant human N-terminal GST-tagged MNK2 (1 to 465 residues) expressed in baculovirus expression system using TATKSGSTTKNR as substrate preincubated for 10 mins followed by ATP addition and measured after 40 mins by luminescence based assay.
Target sequence in this assay (Q9HBH9 whole entry): as the sequence (Q9HBH9 whole entry, looked up) above
Series [10] deals with MDA-MB-435. As to the kind of experiment: Antiproliferative activity against human MDA-MB-435 cells assessed as reduction in cell viability at 20 uM incubated for 72 hrs by MTT assay relative to control. The format is functional.
Series [11] relates to HCT-116. As to the kind of experiment: Antiproliferative activity against human HCT-116 cells assessed as reduction in cell viability at 20 uM incubated for 72 hrs by MTT assay relative to control. Type of series: functional.
Series [12] deals with T1, MAP kinase-interacting serine/threonine-protein kinase 1. Briefly: Potency index, ratio of IC50 of eFT508 to IC50 of compound for inhibition of recombinant human N-terminal DYKDDDDK-tagged MNK1(1 to 424 residues) expressed in baculovirus expression system using TATKSGSTTKNR as substrate preincubated for 10 mins followed by ATP addition and measured after 40 mins by luminescence based assay. Conditions: time 50.0 min.
Target sequence in this assay (Q9BUB5 whole entry, looked up, the tested form may be a part): as the sequence (Q9BUB5 whole entry, the tested form may be a part) above

For series [13], the system named is K562. As to the kind of experiment: Antiproliferative activity against human K562 cells assessed as reduction in cell viability incubated for 72 hrs by MTT assay. Type of series: functional, cell-based. The settings on record: K562, 72 h.
A short description of series [14]: Antitumor activity against […] cells xenografted in BALB/c mouse assessed as tumor growth inhibition at 20 mg/kg, ip administered for 14 days relative to control. Type of series: functional. The settings on record: 336 h, time 14 day, read-out: TGI.
Series [15] has as its system CT26. As to the kind of experiment: Antitumor activity against […] cells xenografted in BALB/c mouse assessed as tumor growth inhibition dosed ip for 14 days. The format is functional, organism-based. The settings on record: time 14.0 day. (In general: A xenograft is tissue or cells of one species grown in another, often human tumour cells in immunodeficient mice.)

Series [16] concerns the target Tyrosine-protein kinase JAK1 (Homo sapiens) (UniProt P23458). As to the kind of experiment: Inhibition of JAK1 (unknown origin) at 500 nM relative to control.
The target in series [17] is T3, MAP kinase-interacting serine/threonine-protein kinase 1/2 (Homo sapiens) (UniProt Q9HBH9+Q9BUB5). As to the kind of experiment: Inhibition of MNK1/MNK2 in […] cells assessed as reduction in eIF4E level at 0.25 to 1 incubated for 24 hrs by Western blot analysis. The format is cell-based. Conditions: dose microM 0.25-1, time 24.0 hrs.
The target of series [18] is Tyrosine-protein kinase BTK (Homo sapiens) (UniProt Q06187). Briefly: Inhibition of BTK (unknown origin) at 500 nM relative to control.
Series [19] deals with Cyclin-dependent kinase 1 (Homo sapiens) (UniProt P06493). Briefly: Inhibition of CDK1 (unknown origin) at 500 nM relative to control.
Series [20] deals with T1, MAP kinase-interacting serine/threonine-protein kinase 1. As to the kind of experiment: Inhibition of MNK1 (unknown origin) at 500 nM relative to control.
Target sequence in this assay (Q9BUB5 whole entry, looked up, the tested form may be a part): as the sequence (Q9BUB5 whole entry, the tested form may be a part) above
The nature of series [21]: Antitumor activity against […] cells xenografted in BALB/c mouse assessed as tumor growth inhibition at 40 mg/kg, ip administered for 14 days relative to control. Type of series: functional. Conditions: 336 h, time 14 day, read-out: TGI.
For series [22], the target named is Cyclin-dependent kinase 2 (Homo sapiens) (UniProt P24941). As to the kind of experiment: Inhibition of CDK2 (unknown origin) at 500 nM relative to control.
For series [23], the target named is Receptor-type tyrosine-protein kinase FLT3 (Homo sapiens) (UniProt P36888). Briefly: Inhibition of FLT3 (unknown origin) at 500 nM relative to control.
Series [24] concerns the target T2, MAP kinase-interacting serine/threonine-protein kinase 2. Briefly: Inhibition of MNK2 (unknown origin) at 500 nM relative to control.
Target sequence in this assay (Q9HBH9 whole entry, looked up): as the sequence (Q9HBH9 whole entry, looked up) above
Series [25] addresses AMP-activated protein kinase, AMPK (Homo sapiens) (UniProt P54646+O43741+P54619+Q9UGJ0+Q9Y478+Q13131+Q9UGI9). As to the kind of experiment: Inhibition of AMPK (unknown origin) at 500 nM relative to control. Type of series: protein-complex assay.
In series [26] the target is Macrophage colony-stimulating factor 1 receptor (Homo sapiens) (UniProt P07333). Briefly: Inhibition of CSF1R (unknown origin) at 500 nM relative to control.
Series [27] concerns the target T4, Interleukin-1 receptor-associated kinase 4 (Homo sapiens) (UniProt Q9NWZ3).
T4 sequence (whole entry): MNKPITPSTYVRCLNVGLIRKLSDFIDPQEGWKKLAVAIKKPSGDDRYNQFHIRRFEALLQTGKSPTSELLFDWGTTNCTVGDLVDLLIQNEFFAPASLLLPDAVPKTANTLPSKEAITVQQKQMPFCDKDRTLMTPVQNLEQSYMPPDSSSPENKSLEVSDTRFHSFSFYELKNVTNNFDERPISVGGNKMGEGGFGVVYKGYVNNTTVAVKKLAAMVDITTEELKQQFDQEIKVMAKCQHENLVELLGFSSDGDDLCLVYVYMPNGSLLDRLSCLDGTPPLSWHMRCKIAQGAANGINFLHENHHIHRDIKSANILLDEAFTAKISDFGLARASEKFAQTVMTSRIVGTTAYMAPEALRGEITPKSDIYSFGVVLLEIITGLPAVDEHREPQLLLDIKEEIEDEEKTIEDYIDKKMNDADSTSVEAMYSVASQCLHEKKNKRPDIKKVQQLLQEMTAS
As to the kind of experiment: Inhibition of IRAK4 (unknown origin) at 500 nM relative to control.

Series [28] addresses T3, MAP kinase-interacting serine/threonine-protein kinase 1/2 (Homo sapiens). As to the kind of experiment: Inhibition of MNK1/MNK2 in […] cells assessed as reduction in eIF4E phosphorylation at 1 uM incubated for 24 hrs by Western blot analysis relative to control. Type of series: cell-based.
The nature of series [29]: Toxicity in BALB/c mouse xenografted with […] cells assessed as weight loss at 20 to 40 mg/kg, ip administered for 14 days. The settings on record: in vivo, 336 h, dose 20-40 mg/kg, time 14 day. The format is organism-based.
In series [30] the target is T3, MAP kinase-interacting serine/threonine-protein kinase 1/2 (Homo sapiens). As to the kind of experiment: Inhibition of MNK1/MNK2 in […] cells assessed as reduction in eIF4E phosphorylation incubated for 24 hrs by Western blot analysis. The format is cell-based.

The source made the active and inactive calls. The calls are words filed in the database; no cut-off is given here.

Receptor-type tyrosine-protein kinase FLT3 (Homo sapiens), sequence (P36888 whole entry): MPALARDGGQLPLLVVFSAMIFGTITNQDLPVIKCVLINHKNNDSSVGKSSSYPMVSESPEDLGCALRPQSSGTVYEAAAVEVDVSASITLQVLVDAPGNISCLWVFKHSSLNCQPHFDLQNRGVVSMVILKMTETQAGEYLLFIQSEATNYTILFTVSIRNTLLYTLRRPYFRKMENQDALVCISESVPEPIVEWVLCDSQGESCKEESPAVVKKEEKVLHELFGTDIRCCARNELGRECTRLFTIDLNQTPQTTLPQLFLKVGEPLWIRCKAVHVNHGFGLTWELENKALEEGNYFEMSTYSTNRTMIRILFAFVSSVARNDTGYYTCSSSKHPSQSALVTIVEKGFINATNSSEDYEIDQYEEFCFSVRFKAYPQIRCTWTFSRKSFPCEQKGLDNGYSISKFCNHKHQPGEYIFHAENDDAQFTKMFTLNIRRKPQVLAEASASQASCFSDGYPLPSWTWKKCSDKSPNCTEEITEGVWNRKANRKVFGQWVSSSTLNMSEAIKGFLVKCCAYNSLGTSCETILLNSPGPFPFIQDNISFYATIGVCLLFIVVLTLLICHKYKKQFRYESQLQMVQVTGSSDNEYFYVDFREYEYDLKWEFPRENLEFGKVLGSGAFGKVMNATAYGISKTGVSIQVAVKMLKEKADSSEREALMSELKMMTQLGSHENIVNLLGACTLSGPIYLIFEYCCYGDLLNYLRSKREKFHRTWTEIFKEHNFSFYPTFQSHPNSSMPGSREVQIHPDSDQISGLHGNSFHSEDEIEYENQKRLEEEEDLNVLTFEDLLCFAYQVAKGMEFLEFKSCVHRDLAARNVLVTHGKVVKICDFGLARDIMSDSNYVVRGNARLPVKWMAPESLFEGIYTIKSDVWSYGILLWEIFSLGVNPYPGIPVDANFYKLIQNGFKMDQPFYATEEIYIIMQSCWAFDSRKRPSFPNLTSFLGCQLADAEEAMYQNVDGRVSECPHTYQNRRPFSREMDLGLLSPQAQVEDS
Tyrosine-protein kinase BTK (Homo sapiens), sequence (Q06187 whole entry): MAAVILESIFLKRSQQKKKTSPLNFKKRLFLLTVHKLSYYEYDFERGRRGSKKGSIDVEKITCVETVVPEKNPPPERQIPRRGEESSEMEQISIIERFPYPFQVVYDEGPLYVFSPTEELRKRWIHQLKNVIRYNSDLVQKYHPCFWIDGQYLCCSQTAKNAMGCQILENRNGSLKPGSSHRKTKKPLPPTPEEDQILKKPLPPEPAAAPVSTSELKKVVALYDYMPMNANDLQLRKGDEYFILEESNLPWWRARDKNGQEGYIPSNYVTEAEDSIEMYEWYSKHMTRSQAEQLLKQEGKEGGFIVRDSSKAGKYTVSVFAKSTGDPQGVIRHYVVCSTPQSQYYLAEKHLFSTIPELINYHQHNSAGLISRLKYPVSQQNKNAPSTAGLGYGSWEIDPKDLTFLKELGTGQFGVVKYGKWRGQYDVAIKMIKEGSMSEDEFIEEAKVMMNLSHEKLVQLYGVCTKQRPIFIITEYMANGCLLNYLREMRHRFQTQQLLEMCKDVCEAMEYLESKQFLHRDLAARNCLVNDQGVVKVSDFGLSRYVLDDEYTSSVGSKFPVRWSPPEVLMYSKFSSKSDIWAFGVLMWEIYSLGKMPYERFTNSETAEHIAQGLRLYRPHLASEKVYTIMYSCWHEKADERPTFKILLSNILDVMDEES
Macrophage colony-stimulating factor 1 receptor (Homo sapiens), sequence (P07333 whole entry): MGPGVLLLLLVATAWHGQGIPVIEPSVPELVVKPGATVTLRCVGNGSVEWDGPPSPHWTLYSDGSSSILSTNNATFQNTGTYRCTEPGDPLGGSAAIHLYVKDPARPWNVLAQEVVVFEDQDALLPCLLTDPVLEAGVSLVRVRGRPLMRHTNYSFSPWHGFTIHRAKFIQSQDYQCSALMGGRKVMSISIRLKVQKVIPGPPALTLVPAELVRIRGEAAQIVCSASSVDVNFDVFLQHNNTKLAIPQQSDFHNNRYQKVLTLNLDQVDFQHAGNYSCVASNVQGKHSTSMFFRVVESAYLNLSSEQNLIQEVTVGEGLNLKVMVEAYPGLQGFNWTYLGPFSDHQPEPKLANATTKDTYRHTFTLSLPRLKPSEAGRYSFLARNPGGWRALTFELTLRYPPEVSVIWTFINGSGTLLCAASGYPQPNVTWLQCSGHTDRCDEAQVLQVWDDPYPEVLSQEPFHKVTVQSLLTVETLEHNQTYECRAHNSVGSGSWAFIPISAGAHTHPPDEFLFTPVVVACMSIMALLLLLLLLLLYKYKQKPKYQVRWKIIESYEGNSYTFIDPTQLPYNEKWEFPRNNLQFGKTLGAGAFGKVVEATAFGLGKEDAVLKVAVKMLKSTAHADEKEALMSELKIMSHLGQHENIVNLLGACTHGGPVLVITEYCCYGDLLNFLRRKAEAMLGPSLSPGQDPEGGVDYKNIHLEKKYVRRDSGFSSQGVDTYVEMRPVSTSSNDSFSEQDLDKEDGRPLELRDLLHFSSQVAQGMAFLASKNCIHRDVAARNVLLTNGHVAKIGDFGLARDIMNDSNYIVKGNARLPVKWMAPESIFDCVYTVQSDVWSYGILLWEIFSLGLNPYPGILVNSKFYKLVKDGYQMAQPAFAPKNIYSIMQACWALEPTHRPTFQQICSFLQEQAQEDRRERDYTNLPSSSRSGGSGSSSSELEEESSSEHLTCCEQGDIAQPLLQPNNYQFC
Cyclin-dependent kinase 1 (Homo sapiens), sequence (P06493 whole entry, looked up): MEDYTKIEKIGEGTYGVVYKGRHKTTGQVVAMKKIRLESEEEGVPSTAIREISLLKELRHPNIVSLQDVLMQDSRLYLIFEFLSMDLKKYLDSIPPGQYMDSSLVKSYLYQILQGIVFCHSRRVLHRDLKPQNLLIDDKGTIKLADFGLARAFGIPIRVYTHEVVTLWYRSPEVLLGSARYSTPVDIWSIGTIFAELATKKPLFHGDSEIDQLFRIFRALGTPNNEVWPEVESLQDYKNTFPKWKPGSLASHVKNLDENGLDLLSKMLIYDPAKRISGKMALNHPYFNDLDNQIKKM

Regarding `Cc1cc(Nc2cc(N3CCN(CCN(C)C)CC3)ncn2)c(=O)n2c1C(=O)NC21CCCCC1`, the IC50 amounted to 1.92 µM in series [1]; 0.0087 µM in series [2]; 9.64 µM in series [7]; 0.0075 µM in series [9]; 13 µM in series [13]. The inhibition at 20 µM in series [3] was found to be 48.4%; in series [8] it was 40.5%; in series [10], 35.2%; in [11], 30.5%. Moreover, the inhibition in series [4] stood at 89%; in series [5], 77.2%. The Ratio IC50 in [6] and in series [12] was 2 throughout.

In the case of `Cc1cc(Nc2ccnnc2)c(=O)n2c1C(=O)NC21CCCCC1`, the IC50 in series [1] is 8.78 µM; in series [2], 0.16 µM; in series [7], 13.3 µM; in series [9] it was 0.162 µM; in [13], greater than 20 µM. For the same molecule, the inhibition at 20 µM was determined as 14% in [3], 24.3% in series [8], 33% in series [10] and 22.7% in series [11]. In addition, the inhibition in series [4] was 70.3%; in series [5], 59.8%.

Regarding `Cc1cc(Nc2cc(N)ncn2)c(=O)n2c1C(=O)NC21CCCCC1` [TOMIVOSERTIB], the IC50 in series [1] worked out at 2.53 µM; in [7] it was 14.5 µM; in series [13], 13.5 µM. Besides, the inhibition at 20 µM in [3] stood at 40.6%; in series [8], 43.1%; in [10], 49.2%; in series [11], 52.7%. The inhibition in series [4] came to 98.8%; in [5] it was 87.8%. Moreover, in series [14], the inhibition in vivo at 20 mg/kg came to 59%.

In the case of `Cc1cc(Nc2cc(N3CCNCC3)ncn2)c(=O)n2c1C(=O)NC21CCCCC1`, the IC50 is 1.81 µM in [1]; 0.0207 µM in [2]; 11 µM in series [7]; 0.0183 µM in series [9]; 8.78 µM in series [13]. In addition, the inhibition at 20 µM in [3] is 24.6%; in [8], 18.8%; in [10] it was 35.2%; in series [11], 59.9%. Further, the inhibition in [4] was found to be 87.7%; in [5] it was 66.5%.

Turning to `Cc1cc(Nc2cc(N3CCN(CCCN(C)C)CC3)ncn2)c(=O)n2c1C(=O)NC21CCCCC1`, in series [15], the TGI entry is “Dose-dependent effect”. Moreover, the IC50 in series [1] was 0.91 µM; in series [2], 0.007 µM; in series [7] it was 10 µM; in [9] it was 0.0061 µM; in [13] it was 11.7 µM. Besides, the inhibition came out at 6% in series [16]; 3% in series [18]; 91.2% in series [4]; 4% in series [19]; 76.5% in series [5]; 96% in series [20]. The inhibition turned out to be 7% in [22]; 9% in [23]; 103% in [24]; 11% in series [25]; 6% in [26]; 21% in series [27]. In addition, the results for the inhibition in [28] and in series [30] were 100% and “Dose-dependent effect”, respectively. In addition, the inhibition result in series [17] was “inactive”. Besides, the inhibition at 20 µM in [3] was 41.3%; in series [8], 58.3%; in [10] it was 49%; in [11] it was 42.9%. The Ratio IC50 in series [6] and in series [12] was 2 throughout. Further, in series [21], the inhibition in vivo at 40 mg/kg was 60.4%. In addition, the inhibition in vivo at 20 mg/kg in series [14] is 41.4%. In series [29], the Activity result was “Non-Toxic”.

Take `Cc1cc(Nc2ccnc(N)c2)c(=O)n2c1C(=O)NC21CCCCC1`: the half-maximal inhibitory concentration (IC50) was 11.2 µM in [1]; 0.0523 µM in [2]; greater than 20 µM in series [7]; 0.0482 µM in series [9]; greater than 20 µM in [13]. Moreover, the inhibition at 20 µM in series [3] is 21.5%; in series [8] it was 30.1%; in series [10], 37.7%; in series [11] it was 42.2%. Also, the inhibition is 70.5% in series [4] and 72.5% in series [5].

A word on the IC50: it is the midpoint of a concentration-inhibition curve. A word on the inhibition: it is the relative decrease from the control value, in per cent.

Source of the values: ChEMBL document CHEMBL4665632, “Design, synthesis and biological evaluation of pyridone-aminal derivatives as MNK1/2 inhibitors” (Bioorg Med Chem, 2019).
